The assay addresses T1, GPX4 (glutathione peroxidase 4) (Homo sapiens, UniProt P36969, U73C).
T1 sequence (P36969 33-197 U73C): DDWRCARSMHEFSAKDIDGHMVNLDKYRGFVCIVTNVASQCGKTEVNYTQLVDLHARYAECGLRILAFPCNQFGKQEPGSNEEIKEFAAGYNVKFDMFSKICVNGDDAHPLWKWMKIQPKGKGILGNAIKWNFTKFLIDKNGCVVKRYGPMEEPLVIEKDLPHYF
The experiment in a line: SPR. Format: binding.

Kd data for 1 molecule are collected here from article PMC9772252 (Cell chemical biology, 2022).

As a reminder, the Kd is the concentration at which binding is half-saturated. A higher Kd goes with lower affinity.

As to `COC(=O)c1ccc([C@H]2c3[nH]c4ccccc4c3C[C@H](C(=O)OC)N2C(C)=O)cc1` [RSL3-minus-Cl, Methyl (1S,3R)-2-acetyl-1-(4-(methoxycarbonyl)phenyl)-2,3,4,9-tetrahydro-1H-pyrido[3,4-b] indole-3-carboxylate], the Kd was 60 µM.
